Patent US5144010A, “Method of producing monoclonal auto-anti-idiotypic antibodies” (The Trustees of Columbia University in the City of New York, priority 1989, dated 1992)

Biological target: T1, adenosine receptor (Rattus norvegicus, UniProt P25099)
T1 sequence (P25099 1-326): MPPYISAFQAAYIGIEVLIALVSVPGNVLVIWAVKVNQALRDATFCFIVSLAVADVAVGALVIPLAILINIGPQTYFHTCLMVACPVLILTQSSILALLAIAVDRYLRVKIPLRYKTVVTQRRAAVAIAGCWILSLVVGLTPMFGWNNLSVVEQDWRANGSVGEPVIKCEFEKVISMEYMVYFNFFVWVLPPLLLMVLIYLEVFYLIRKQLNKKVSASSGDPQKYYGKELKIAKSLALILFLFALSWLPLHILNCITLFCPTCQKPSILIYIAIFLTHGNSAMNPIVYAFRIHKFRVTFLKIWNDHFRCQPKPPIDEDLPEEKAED
Experiment: Binding of monoclonal anti-idiotypic antibodies to adenosine receptor preparation and rabbit anti-CPA
Details: adenosine receptor preparation from rat brain
Protocol: Protocols for immunization and fusion were essentially identical to that described previously for BisQ in Example 2. Immunization was effected with the RSA conjugate, but the BSA conjugate is just as satisfactory. Screening was conducted with the BSA conjugate and with a specifically purified rabbit antibody raised by immunization with the BSA conjugate. Specifically purified antibody was prepared in a manner analogous to that described for anti-BisQ antibody (1) except that the immunoadsorbent was N^6 -(carboxypentamethylene) adenosine linked to aminohexylsepharose (Pharmacia).

inhibition of the reaction of monoclonal anti-idiotypic antibodies with adenosine receptor: could be inhibited
SMILES: OC[C@H]1O[C@@H](n2cnc3c(NC4CCCCC4)ncnc32)[C@H](O)[C@@H]1O [N^6 -cyclohexyladenosine]
